Experimental data reported in patent US20240252650A1, “LIPID COMPOUNDS AND LIPID NANOPARTICLE COMPOSITIONS” (SUZHOU ABOGEN BIOSCIENCES CO., LTD., priority 2021, published 2024).

Legend:
Assay type in all cases: physicochemical
[1] = Encapsulation efficiency of lipid nanoparticles (Quant-it Ribogreen RNA quantification assay); details: LNP encapsulating hEPO mRNA; table of Example 16
Protocol: (§1) Briefly, a cationic lipid provided herein, DSPC, cholesterol, and PEG-lipid were solubilized in ethanol at a molar ratio of 50:10:38.5:1.5, and mRNA were diluted in 10 to 50 mM citrate buffer, pH=4. The LNPs were prepared at a total lipid to mRNA weight ratio of approximately 10:1 to 30:1 by mixing the ethanolic lipid solution with the aqueous mRNA solution at a volume ratio of 1:3 using a microfluidic apparatus, total flow rate ranging from 9-30 mL/min. Ethanol were thereby removed and replaced by DPBS using dialysis. Finally, the lipid nanoparticles were filtered through a 0.2 μm sterile filter.
(§2) Lipid nanoparticle size were determined by dynamic light scattering using a Malvern Zetasizer Nano ZS (Malvern UK) using a 173° backscatter detection mode. The encapsulation efficiency of lipid nanoparticles were determined using a Quant-it Ribogreen RNA quantification assay kit (Thermo Fisher Scientific, UK) according to the manufacturer's instructions.

[2] = Apparent pKa of LNP formulations by TNS fluorescence assay; details: LNP cationic lipid/DSPC/cholesterol/DMG-PEG 50/10/38.5/1.5 mol %, table of Example 16
Protocol: As reported in literature, the apparent pKa of LNP formulations correlates with the delivery efficiency of LNPs for nucleic acids in vivo. The apparent pKa of each formulation was determined using an assay based on fluorescence of 2-(p-toluidino)-6-napthalene sulfonic acid (TNS). LNP formulations comprising of cationic lipid/DSPC/cholesterol/DMG-PEG (50/10/38.5/1.5 mol %) in PBS were prepared as described above. TNS was prepared as a 300 uM stock solution in distilled water. LNP formulations were diluted to 0.1 mg/ml total lipid in 3 mL of buffered solutions containing 50 mM sodium citrate, 50 mM sodium phosphate, 50 mM sodium borate, and 30 mM sodium chloride where the pH ranged from 3 to 9. An aliquot of the TNS solution was added to give a final concentration of 0.1 mg/ml and following vortex mixing fluorescence intensity was measured at room temperature in a Molecular Devices Spectramax iD3 spectrometer using excitation and mission wavelengths of 325 nm and 435 nm. A sigmoidal best fit analysis was applied to the fluorescence data and the pKa value was measured as the pH giving rise to half-maximal fluorescent intensity.

[3] = Lipid nanoparticle size and polydispersity by dynamic light scattering (Malvern Zetasizer Nano ZS); details: LNP encapsulating hEPO mRNA; table of Example 16
Protocol: as §1, §2

Compound | Encapsulation Efficiency [1] [%] | Apparant Pka [2] | polydispersity [3] | size (nm) [3] [nm]
CCCCC/C=C\C/C=C\CCCCCCCC(=O)OCC(COC(=O)CCCCN(CCO)C1CCC1)COC(=O)CCCC(COC(=O)CCCCCCC)COC(=O)CCCCCCC (stereo not drawn) [Compound 4] | 91.42 | 6.881 | 0.090 | 93.73
CCCCCCCCCC(=O)OCC(COC(=O)CCCCCN(CCO)C1CCC1)COC(=O)CCCC(COC(=O)CCCCCCC)COC(=O)CCCCCCC (stereo not drawn) [Compound 58] | 77.87 | 6.97 | 0.129 | 104.3
CCCCC/C=C\C/C=C\CCCCCCCC(=O)OCC(COC(=O)CCCCCCN(CCO)C1CCC1)COC(=O)CCCC(COC(=O)CCCCCCC)COC(=O)CCCCCCC (stereo not drawn) [Compound 42] | 92.04 | 6.879 | 0.077 | 96.94
CCCCCCCCCCC(=O)OCC(COC(=O)CCCCCN(CCO)C1CCC1)COC(=O)CCCC(COC(=O)CCCCCCC)COC(=O)CCCCCCC (stereo not drawn) [Compound 49] | 89.09 | 7.287 | 0.086 | 100.8
CCCCC/C=C\C/C=C\CCCCCCCC(=O)OCC(COC(=O)CCOC(COC(=O)CCCCCCC)COC(=O)CCCCCCC)COC(=O)OCCCN(CC)CC (stereo not drawn) [Compound 3] | 89.46 | 6.649 | 0.121 | 88.27

The remaining lines, values ahead:

Encapsulation Efficiency [1] [%] | Apparant Pka [2] | polydispersity [3] | size (nm) [3] [nm] | Compound
89.87 | 6.707 | 0.02612 | 98.52 | CCCCCCCCOC(=O)CCCCCCCC(=O)OCC(COC(=O)CCCCN(CCO)C1CCCCC1)COC(=O)CCCC(COC(=O)CCCCCCC)COC(=O)CCCCCCC (stereo not drawn) [Compound 104]
92.56 | 6.597 | 0.069 | 84.76 | C=CCN(CCO)CCCCC(=O)OCC(COC(=O)CCCCCCCCCCCCCCCCC)COC(=O)CCCC(COC(=O)CCCCCCC)COC(=O)CCCCCCC (stereo not drawn) [Compound 84]
77.94 | 6.091 | 0.01154 | 77.71 | CCCCC/C=C\C/C=C\CCCCCCCC(=O)OCC(COC(=O)CCCC(COC(=O)CCCCCCC)COC(=O)CCCCCCC)COC(=O)OCCCN(CCO)C1CCCCC1 (stereo not drawn) [Compound 106]
83.41 | 7.14 | 0.207 | 102.92 | CCCCCCCCCCCCCCCCCC(=O)OCC(COC(=O)CCCCN(CCC)CCO)COC(=O)CCC(=O)OCC(COC(=O)CCCCCCC)COC(=O)CCCCCCC (stereo not drawn) [Compound 98]
